Source: patent US7759101B2, “Ginsenoside glycosidases hydrolyzing ginsenoside sugar moieties and uses thereof” (priority 2000, dated 2010)

Key:
[1] = tested on: ginsenoside glycosidases from A. niger; assay: Hydrolysis of ginsenosides with crude ginsenoside glycosidases from A. niger, products measured by TLC; format: biochemical, Aspergillus niger; details: for effect of metal ions on the enzyme reaction: hydrolysis of Rb1, pH 5.0, 30°C.
Protocol: Aspergillus niger FFCCDL-48 g was cultured in a medium containing 1% ginseng extracts and 3% wheat bran extracts at 30° C. for 54 hours. Cells were removed by centrifugation, after which (NH4)2SO4 powder was added to 2000 ml of the cell-free supernatant with stirring to 65% saturation. The solution was stored overnight at 4° C. and precipitated proteins were collected by centrifugation, resuspended in 80 ml of distilled water and dialyzed against 0.01M acetate buffer pH 5. Insolubles were removed by centrifugation, and the solution was adjusted to 200 ml with 0.01 M acetate buffer pH 5. The crude enzyme solution may be used to hydrolyze ginsenosides or to purify the enzymes.
100 mg each of ginsenosides Rb1, Rb2, Rc and Rd and 10 mg of ginsenoside Rg3 were dissolved in separate tubes containing 10 ml of 0.01M acetate buffer pH 5. 10 ml of the crude enzyme solution obtained in 1.1 was added to each tube and allowed to react at 30° C. for 18 hours. Then 10 ml of n-butanol was added to stop the reactions. The products were measured by thin layer chromatography (TLC) (Silica gel 60-F254, Merck; chloroform:methanol:water 70:30:5).
Experiments were carried out to explore the effects of temperature, pH, metal ions and reaction time on the enzyme reaction, in order to further characterize the enzymes.
100 mg of ginsenoside Rb1 was used in a reaction under the conditions as described in 1.2 and the effect of temperature was shown in Table 2.

[2] = tested on: ginsenoside glycosidase I; assay: Hydrolysis of ginsenosides with Fraction 36 (ginsenoside glycosidase I); format: biochemical, Aspergillus niger; details: Fraction 36; substrates Rb1, Rb2, Rc, Rd 0.5%; Rg3, F2, Rh2, C—K, Rg2 0.05%; pH 5.0, 30° C.
Protocol: 10 ml of the enzyme solution obtained in 1.1 was subjected to a DEAE-Cellulose DE-52 column (Pharamcia, 1.5×6.7 cm) to absorb the enzyme protein. The column was then eluted with a NaCl gradient (0.06, 0.12, 0.18, 0.24, 0.3, 0.4, 0.5 and 0.6M).
Fractions 36 and 54 from the DEAE-Cellulose column appeared as one dot on a SDS-polyacrylamide gel, representing the purified enzymes.
Fraction 36 which was eluted with 0.12 M NaCl from the DEAE-Cellulose column was lyophilized and appeared as a single dot with a molecular weight of 51,000 Daltons when running on a SDS-polyacrylamide gel.
To observe the differences between the ginsenoside glycosidases of the invention and known exo-cellulases, the ginsenoside glycosidases of the invention were compared with cellulose β-glucosidase (E.C. 3.2.1.21) in two reactions with 0.5% ginsenosides Rb1 or Rd as substrate.

[3] = tested on: ginsenoside glycosidases from A. oryzae; assay: Hydrolysis of ginsenosides with crude ginsenoside glycosidases from A. oryzae, TLC; format: biochemical, Aspergillus oryzae; details: pH 5.0, 30° C., 18 hours
Protocol: Aspergillus oryzae FFCCDL-39 g (available from Food Fermentation Culture Collection of Dalian Institute of Light Industry) was cultured with stirring in a medium containing 1% ginseng extracts and 3% wheat bran extracts at 30° C. for 64 hours. Cells were removed by centrifugation, after which (NH4)2SO4 powder was added to 2000 ml of the cell-free supernatant with stirring to 65% saturation. The solution was stored overnight at 4° C. and precipitated proteins were collected by centrifugation, resuspended in 80 ml of distilled water and dialyzed against 0.01M acetate buffer pH 5. Insolubles were removed by centrifugation, and the solution was adjusted to 200 ml with 0.01 M acetate buffer pH 5. The crude enzyme solution may be used to hydrolyze ginsenosides or to purify the enzymes.
Each 100 mg of ginsenosides Rb1, Rb2, Rc Re and Rd and each 10 mg of ginsenoside Rg3 and Rg2 were dissolved in separate tubes containing 10 ml of 0.01M acetate buffer pH 5. 10 ml of the crude enzyme solution obtained as above was added to each tube and allowed to react at 30° C. for 18 hours. Then 10 ml of n-butanol was added to stop the reactions. The products were measured by thin layer chromatography (TLC) (Silica gel 60-F254, Merck; chloroform:methanol:water 70:30:5). […]

[4] = tested on: ginsenoside glycosidase I from ginseng plants; assay: Hydrolysis of ginsenosides with fraction 52 (ginsenoside glycosidase I) from ginseng plant; format: biochemical; details: for Percentage of F2 in the reaction product / Percentage of Rd in the reaction product: Fraction 52, substrate 0.5%, 50° C., pH 5.0, 18 hours
Protocol: (§1) 200 g of fresh ginseng root was cut into pieces and added to 600 ml of 0.02 M acetate buffer pH 5. Supernatant was obtained by filtration after the mixture stand at 40° C. for 2 hours. To the supernatant (NH4)2SO4 was added gradually until 70% saturation and the mixture stand overnight at 4° C. Then protein pellets were collected by centrifugation and redissolved in 15 ml of distilled water. The solution was dialyzed against 0.02 M Tris-HCl pH 7.4. Insolubles were removed by centrifugation and the volume of the supernatant was adjusted to 20 ml.
(§2) 5 ml of the enzyme solution was subjected to a DEAE-Cellulose DE-25 column (Whatman, 1.4×6.7 cm). The column was eluted with a KCl gradient (0.06, 0.12, 0.18 and 0.24 M) in 0.02 M Tris-HCl pH 7.4. After elution, each fraction was tested for the activity of hydrolyzing ginsenosides. […] Fraction 52 can also hydrolyze the glucosidic bond at the twentieth carbon atom of Rb and Rc to give ginsenoside F2.

[5] = tested on: ginsenoside glycosidases from wheat bran; assay: Hydrolysis of ginsenosides with ginsenoside glycosidases from wheat bran; format: biochemical; details: for Percentage of F2 in the reaction product / Percentage of Rd in the reaction product: 10 ml of 1% ginsenoside substrate, 40° C., 20 hours
Protocol: 500 g of wheat bran was added to 2500 ml of 0.02 M acetate buffer pH 5 and extracted at 40° C. for 2 hours. 2000 ml of supernatant were obtained by filtration to which (NH4)2SO4 was added gradually with stirring until 70% saturation. The mixture stand at 4° C. overnight. Protein pellets were collected by centrifugation and redissolved in 80 ml of distilled water and dialyzed against 0.02 M acetate buffer pH 5.0. Insolubles were removed by centrifugation and the supernatant was adjusted to a volume of 200 ml to obtain the crude enzyme solution.
10 ml of the enzyme solution was allowed to react with 10 ml of 1% ginsenoside substrate at 40° C. for 20 hours.

[6] = tested on: ginsenoside glycosidase III from ginseng plant; assay: Hydrolysis of Rd with fraction 37 (ginsenoside glycosidase III) from ginseng plant; format: biochemical; details: ginsenoside glycosidase III from ginseng plant
Protocol: as §1, §2

SMILES	Percentage of C—K in the reaction product ([1]; pH 5, 30° C., 18 hours) [%]	Percentage of F2 in the reaction product ([1]; pH 5, 30° C., 18 hours) [%]	Percentage of Rd in the reaction product ([1]; pH 5, 30° C., 18 hours) [%]	Percentage of Rh2 in the reaction product ([1]; pH 5, 30° C., 18 hours) [%]	Percentage of aglycone in the reaction product ([1]; pH 5, 30° C., 18 hours) [%]	Percentage of C—K in the reaction product [2] [%]	Percentage of F2 in the reaction product [2] [%]	Percentage of Rd in the reaction product [2] [%]	Percentage of Rh2 in the reaction product [2] [%]	Percentage of aglycone in the reaction product [2] [%]	Percentage of C—K in the reaction product [3] [%]	Percentage of F2 in the reaction product [3] [%]	Percentage of Rd in the reaction product [3] [%]	Percentage of aglycone in the reaction product [3] [%]	Percentage of F2 in the reaction product [4] [%]	Percentage of Rd in the reaction product [4] [%]	Percentage of F2 in the reaction product [5] [%]	Percentage of Rd in the reaction product [5] [%]	effect of metal ions on the enzyme reaction [1]	further results
CC(C)=CCC[C@](C)(O[C@@H]1O[C@H](CO[C@@H]2O[C@@H](CO)[C@H](O)[C@H]2O)[C@@H](O)[C@H](O)[C@H]1O)[C@H]1CC[C@]2(C)[C@@H]1[C@H](O)C[C@@H]1[C@@]3(C)CC[C@H](O[C@@H]4O[C@H](CO)[C@@H](O)[C@H](O)[C@H]4O[C@@H]4O[C@H](CO)[C@@H](O)[C@H](O)[C@H]4O)C(C)(C)[C@@H]3CC[C@]12C [Rc, ginsenoside Rc]	15	58	12	2	5	52	36	8	2	2	56	30	19	5	55	45	55	43	–	Percentage of Rc in the reaction product ([1]; pH 5, 30° C., 18 hours): 8%
[Pb+2] [Pb^++]	–	–	–	–	–	–	–	–	–	–	–	–	–	–	–	–	–	–	inhibit the reaction	–
CC(C)=CCC[C@](C)(O[C@@H]1O[C@H](CO[C@@H]2OC[C@H](O)[C@H](O)[C@H]2O)[C@@H](O)[C@H](O)[C@H]1O)[C@H]1CC[C@]2(C)[C@@H]1[C@H](O)C[C@@H]1[C@@]3(C)CC[C@H](O[C@@H]4O[C@H](CO)[C@@H](O)[C@H](O)[C@H]4O[C@@H]4O[C@H](CO)[C@@H](O)[C@H](O)[C@H]4O)C(C)(C)[C@@H]3CC[C@]12C [Rb2, ginsenoside Rb2]	17	57	13	3	3	54	35	9	1	1	54	35	18	3	65	35	50	45	–	Percentage of Rb2 in the reaction product ([1]; pH 5, 30° C., 18 hours): 7%
[Ca+2] [Ca^++]	–	–	–	–	–	–	–	–	–	–	–	–	–	–	–	–	–	–	slightly accelerate the conversion rate	effect of metal ion on the enzyme ([4]; ginsenoside glycosidase I from ginseng plant): enhancing effect; effect of metal ion on the enzyme [6]: enhancing effect
CC(C)=CCC[C@](C)(O[C@@H]1O[C@H](CO)[C@@H](O)[C@H](O)[C@H]1O)[C@H]1CC[C@]2(C)[C@@H]1[C@H](O)C[C@@H]1[C@@]3(C)CC[C@H](O[C@@H]4O[C@H](CO)[C@@H](O)[C@H](O)[C@H]4O)C(C)(C)[C@@H]3CC[C@]12C [F2, ginsenoside F2]	–	–	–	–	–	62	30	–	3	5	–	–	–	–	–	–	–	–	–	–
[Fe+2] [Fe^++]	–	–	–	–	–	–	–	–	–	–	–	–	–	–	–	–	–	–	–	effect of metal ion on the enzyme activity ([5]; enzymes from wheat bran): enhance the enzyme activity
